# The source made the active and inactive calls. The calls are words filed in the database; no cut-off is given here.
# Experiments:
# MCF7 [1] = assay: Induction of apoptosis in human MCF7 cells assessed as activation of caspase 9 at 3 times IC50 after 16 to 36 hrs by immunoblotting; format: functional, cell-based
# [2] = target: Cellular tumor antigen p53 (Homo sapiens) (UniProt P04637); assay: Induction of p53 activation in human MCF7 cells assessed as phosphorylation at Ser15 at 3 times IC50 after 4 to 36 hrs by Western blot analysis; format: cell-based
# Cellular tumor antigen p53 (Homo sapiens), sequence (P04637 whole entry, looked up): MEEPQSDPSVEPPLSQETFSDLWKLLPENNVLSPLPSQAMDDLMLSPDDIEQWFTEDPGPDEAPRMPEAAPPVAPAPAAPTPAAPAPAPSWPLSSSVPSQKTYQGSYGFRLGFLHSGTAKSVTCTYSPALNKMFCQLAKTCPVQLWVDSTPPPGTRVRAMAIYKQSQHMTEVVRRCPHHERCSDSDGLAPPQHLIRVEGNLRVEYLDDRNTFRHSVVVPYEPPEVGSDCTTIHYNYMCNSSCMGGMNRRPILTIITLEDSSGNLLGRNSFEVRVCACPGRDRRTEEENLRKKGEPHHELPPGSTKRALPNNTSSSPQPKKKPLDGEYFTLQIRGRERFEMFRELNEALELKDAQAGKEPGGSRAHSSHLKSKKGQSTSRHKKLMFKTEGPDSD
# MCF7 [3] = assay: Antiproliferative activity against human MCF7 cells after 3 days by sulforhodamine-B colorimetric assay; format: functional, cell-based; settings: MCF7, 72 h
# MCF7 [4] = assay: Induction of apoptosis in human MCF7 cells at 3 times IC50 after 48 hrs by using Annexin V-FITC staining by flow cytometry (reference value: 0.92 +/- 1.29 %); format: functional
# MCF7 [5] = assay: Cell cycle arrest in human MCF7 cells assessed as accumulation at G2/M phase after 48 hrs by flow cytometry (reference value: 13.26 +/- 2.98 %); format: functional
# MCF7 [6] = assay: Cell cycle arrest in human MCF7 cells assessed as accumulation at […] phase after 48 hrs by flow cytometry (reference value: 19.29 +/- 1.68 %); format: functional
# [7] = target: Eukaryotic translation initiation factor 2 subunit 1 (Homo sapiens) (UniProt P05198); assay: Induction of eIF2alpha phosphorylation in human MCF7 cells at 3 times IC50 after 36 hrs by Western blot analysis; format: cell-based
# Eukaryotic translation initiation factor 2 subunit 1 (Homo sapiens), sequence (P05198 whole entry): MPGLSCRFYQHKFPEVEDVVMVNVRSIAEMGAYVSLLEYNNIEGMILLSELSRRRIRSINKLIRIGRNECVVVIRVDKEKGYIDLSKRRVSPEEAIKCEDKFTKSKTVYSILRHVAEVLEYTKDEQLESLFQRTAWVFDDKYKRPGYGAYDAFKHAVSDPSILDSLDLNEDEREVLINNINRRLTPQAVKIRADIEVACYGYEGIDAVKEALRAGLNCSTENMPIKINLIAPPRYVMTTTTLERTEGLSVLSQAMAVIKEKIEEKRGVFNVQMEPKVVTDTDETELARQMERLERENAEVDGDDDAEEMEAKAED
# MCF7 [8] = assay: Cell cycle arrest in human MCF7 cells assessed as accumulation at G0/G1 phase after 48 hrs by flow cytometry (reference value: 62.79 +/- 1.30 %); format: functional
Compound,Activity [2],IC50 (MCF7 [3]) [µM],Activity [7],Activity (MCF7 [1]),Activity (MCF7 [4]) [%],Activity (MCF7 [5]) [%],Activity (MCF7 [6]) [%],Activity (MCF7 [8]) [%]
CC(=O)O[C@H]1C(=O)[C@@]2(C)[C@H]([C@H](OC(=O)c3ccccc3)[C@]3(O)C[C@H](OC(=O)[C@H](O)[C@@H](NC(=O)c4ccccc4)c4ccccc4)C(C)=C1C3(C)C)[C@]1(OC(C)=O)CO[C@@H]1C[C@@H]2O,inactive,,,Active,,,,
Nc1ncnc2c1ncn2CC1CSc2ccccc2O1 (racemic),,> 30,,,,,,
Clc1ncnc2c1ncn2CC1COc2ccccc2O1 (racemic),,18.8,,,,,,
Clc1nc(Cl)c2ncn(CC3COc4ccccc4O3)c2n1 (racemic),,19.6,,,,,,
Nc1ncnc2c1ncn2CC1COc2ccccc2O1 (racemic),,> 30,,,,,,

# Further compounds by falling IC50 (MCF7 [3]), results first:
Activity [2],IC50 (MCF7 [3]) [µM],Activity [7],Compound,Activity (MCF7 [1]),Activity (MCF7 [4]) [%],Activity (MCF7 [5]) [%],Activity (MCF7 [6]) [%],Activity (MCF7 [8]) [%]
,10.6,,Clc1ncnc2c1ncn2CC1COc2ccccc2S1 (racemic),,,,,
inactive,9.24,Active,Clc1ncnc2c1ncn2CC1CSc2ccccc2O1 (racemic),Active,37.99,23.35,13.77,62.87
,8.97,,Clc1nc(Cl)c2ncn(CC3COc4ccccc4S3)c2n1 (racemic),,,,,
,7.64,,Brc1ncnc2c1ncn2CC1COc2ccccc2O1 (racemic),,21.66,36.71,10.27,53.02
,6.18,,Brc1ncnc2c1ncn2CC1COc2ccccc2S1 (racemic),,,,,
inactive,4.87,Active,Brc1ncnc2c1ncn2CC1CSc2ccccc2O1 (racemic),Active,14.33,31.37,17.06,51.56
inactive,2.75,Active,Clc1nc(Cl)c2ncn(CC3CSc4ccccc4O3)c2n1 (racemic),Active,70.08,43.89,10.83,45.28

# — ChEMBL document CHEMBL1821645, “Synthesis and anticancer activity of (RS)-9-(2,3-dihydro-1,4-benzoxaheteroin-2-ylmethyl)-9H-purines” (Eur J Med Chem, 2011)
